Experiment: Solubility of surfactants in the base formulation of Example 12
Format: physicochemical
Conditions: base solution of water, dipotassium hydrogen phosphate, potassium hydroxide, benzotriazole; without hydrotrope
Protocol: A base solution comprising 907.77 g deionised water, 46.22 g of anhydrous dipotassium hydrogen phosphate, 30.98 g of 48% w/w potassium hydroxide solution and 10.36 g benzotriazole was prepared. In the case of Surfadone LP100 and Makon NF12, these surfactants were insoluble in the base formulation, and so were solublised using the hydrotrope, Triton H66 (see formulations 12-D and 12-F).

solubility in the base formulation: insoluble
SMILES: CCCCCCCCN1CCCC1=O [Surfadone LP100, N-octyl-2-pyrrolidone]

Reference: patent publication US12427215B2, “Endoscope disinfectant” (Whiteley Corporation Pty Ltd, priority 2019, dated 2025)
